Assays:
[1] = target: Serine/threonine-protein kinase WNK2 (Homo sapiens) (UniProt Q9Y3S1); settings: Compound concentration 1000.0 nM
[2] = target: cGMP-dependent protein kinase 1 (Homo sapiens) (UniProt Q13976); settings: Compound concentration 1000.0 nM
[3] = target: Cyclin-dependent kinase 11A (Homo sapiens) (UniProt Q9UQ88); settings: Compound concentration 1000.0 nM
[4] = target: Calcium/calmodulin-dependent protein kinase type II subunit alpha (Homo sapiens) (UniProt Q9UQM7); settings: Compound concentration 1000.0 nM
[5] = target: Histamine H4 receptor (Homo sapiens) (UniProt Q9H3N8); settings: Compound concentration 10.0 uM
Chain of Histamine H4 receptor (Homo sapiens) (Q9H3N8 whole entry): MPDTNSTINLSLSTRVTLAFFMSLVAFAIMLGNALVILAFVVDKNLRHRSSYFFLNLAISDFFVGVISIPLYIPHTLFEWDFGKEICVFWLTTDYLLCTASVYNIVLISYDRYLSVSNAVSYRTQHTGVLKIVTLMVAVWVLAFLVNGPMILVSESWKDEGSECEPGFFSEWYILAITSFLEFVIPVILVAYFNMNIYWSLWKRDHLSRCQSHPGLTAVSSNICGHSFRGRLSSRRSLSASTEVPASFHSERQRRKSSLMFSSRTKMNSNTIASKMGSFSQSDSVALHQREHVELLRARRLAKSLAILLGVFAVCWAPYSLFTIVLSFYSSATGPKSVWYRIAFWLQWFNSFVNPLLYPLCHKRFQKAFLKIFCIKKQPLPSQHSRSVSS

[6] = target: Serine/threonine-protein kinase 38-like (Homo sapiens) (UniProt Q9Y2H1); settings: Compound concentration 1000.0 nM
[7] = target: Sodium-dependent noradrenaline transporter (Homo sapiens) (UniProt P23975); settings: Compound concentration 10.0 uM
[8] = target: Cyclin-dependent kinase 5 (Homo sapiens) (UniProt Q00535); settings: Compound concentration 1000.0 nM
[9] = target: Serine/threonine-protein kinase SIK3 (Homo sapiens) (UniProt Q9Y2K2); settings: Compound concentration 1000.0 nM
[10] = target: Receptor-interacting serine/threonine-protein kinase 2 (Homo sapiens) (UniProt O43353); settings: Compound concentration 1000.0 nM
[11] = target: T1, Alpha-2B adrenergic receptor (Homo sapiens) (UniProt P18089); settings: Compound concentration 10.0 uM
T1 sequence (whole entry): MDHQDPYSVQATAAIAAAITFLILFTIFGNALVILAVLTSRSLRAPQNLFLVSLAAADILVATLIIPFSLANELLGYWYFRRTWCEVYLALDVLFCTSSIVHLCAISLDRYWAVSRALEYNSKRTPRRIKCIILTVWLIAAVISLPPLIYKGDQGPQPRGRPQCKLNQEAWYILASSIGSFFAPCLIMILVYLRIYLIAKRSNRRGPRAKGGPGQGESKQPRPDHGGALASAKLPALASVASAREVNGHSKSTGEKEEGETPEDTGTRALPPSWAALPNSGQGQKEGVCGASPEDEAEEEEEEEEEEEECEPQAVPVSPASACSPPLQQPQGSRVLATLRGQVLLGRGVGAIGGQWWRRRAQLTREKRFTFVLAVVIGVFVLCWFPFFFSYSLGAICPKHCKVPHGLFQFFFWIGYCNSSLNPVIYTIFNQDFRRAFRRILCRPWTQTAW

[12] = target: T2, 5-hydroxytryptamine receptor 3A (Homo sapiens) (UniProt P46098); settings: Compound concentration 10.0 uM
T2 sequence (whole entry): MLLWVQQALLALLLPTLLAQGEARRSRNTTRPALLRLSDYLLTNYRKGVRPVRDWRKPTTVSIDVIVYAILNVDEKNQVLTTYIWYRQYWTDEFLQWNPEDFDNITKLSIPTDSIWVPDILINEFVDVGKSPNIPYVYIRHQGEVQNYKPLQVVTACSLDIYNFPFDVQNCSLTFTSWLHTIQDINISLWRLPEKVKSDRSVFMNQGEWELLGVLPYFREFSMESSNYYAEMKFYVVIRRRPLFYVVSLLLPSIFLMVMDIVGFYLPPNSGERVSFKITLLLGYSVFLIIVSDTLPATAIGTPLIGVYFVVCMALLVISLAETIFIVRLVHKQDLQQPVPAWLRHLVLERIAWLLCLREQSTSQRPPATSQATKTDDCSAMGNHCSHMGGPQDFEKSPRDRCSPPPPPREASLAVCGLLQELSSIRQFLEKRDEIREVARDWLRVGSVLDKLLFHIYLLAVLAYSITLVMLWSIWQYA

[13] = target: Serine/threonine-protein kinase MRCK gamma (Homo sapiens) (UniProt Q6DT37); settings: Compound concentration 1000.0 nM
[14] = target: Macrophage colony-stimulating factor 1 receptor (Homo sapiens) (UniProt P07333); settings: Compound concentration 1000.0 nM
[15] = target: Mitogen-activated protein kinase kinase kinase kinase 5 (Homo sapiens) (UniProt Q9Y4K4); settings: Compound concentration 1000.0 nM
[16] = target: Cyclin-dependent kinase 4 (Homo sapiens) (UniProt P11802); settings: Compound concentration 1000.0 nM
Chain of Cyclin-dependent kinase 4 (Homo sapiens) (P11802 whole entry): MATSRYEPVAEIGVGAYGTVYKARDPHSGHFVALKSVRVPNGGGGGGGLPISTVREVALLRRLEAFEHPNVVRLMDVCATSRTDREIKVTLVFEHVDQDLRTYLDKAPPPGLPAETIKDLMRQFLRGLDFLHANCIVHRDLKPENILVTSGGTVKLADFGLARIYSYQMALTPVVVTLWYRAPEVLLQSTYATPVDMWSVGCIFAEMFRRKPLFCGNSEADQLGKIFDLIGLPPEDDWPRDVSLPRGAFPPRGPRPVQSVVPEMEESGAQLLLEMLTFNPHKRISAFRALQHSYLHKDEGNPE

[17] = target: Mitogen-activated protein kinase 6 (Homo sapiens) (UniProt Q16659); settings: Compound concentration 1000.0 nM
[18] = target: G protein-coupled receptor kinase 4 (Homo sapiens) (UniProt P32298); settings: Compound concentration 1000.0 nM
[19] = target: Tyrosine-protein kinase FRK (Homo sapiens) (UniProt P42685); settings: Compound concentration 1000.0 nM
[20] = target: Dual serine/threonine and tyrosine protein kinase (Homo sapiens) (UniProt Q6XUX3); settings: Compound concentration 1000.0 nM
[21] = target: Mitogen-activated protein kinase 7 (Homo sapiens) (UniProt Q13164); settings: Compound concentration 1000.0 nM
[22] = target: Wee1-like protein kinase 2 (Homo sapiens) (UniProt P0C1S8); settings: Compound concentration 1000.0 nM
[23] = system: Mast/stem cell growth factor receptor Kit (Homo sapiens), P10721 [D816V]; settings: Compound concentration 1000.0 nM
[24] = target: Mitogen-activated protein kinase 11 (Homo sapiens) (UniProt Q15759); settings: Compound concentration 1000.0 nM
Chain of Mitogen-activated protein kinase 11 (Homo sapiens) (Q15759 whole entry): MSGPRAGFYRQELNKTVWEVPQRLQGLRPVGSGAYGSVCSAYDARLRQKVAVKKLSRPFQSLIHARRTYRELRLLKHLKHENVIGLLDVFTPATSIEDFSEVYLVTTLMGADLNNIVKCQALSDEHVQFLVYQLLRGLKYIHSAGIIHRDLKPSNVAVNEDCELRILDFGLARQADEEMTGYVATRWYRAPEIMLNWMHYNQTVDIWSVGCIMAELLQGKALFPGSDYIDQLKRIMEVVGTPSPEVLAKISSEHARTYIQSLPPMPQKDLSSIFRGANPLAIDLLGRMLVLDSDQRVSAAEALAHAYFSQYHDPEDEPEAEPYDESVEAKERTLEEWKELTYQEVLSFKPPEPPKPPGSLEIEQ

[25] = target: Ephrin type-B receptor 4 (Homo sapiens) (UniProt P54760); settings: Compound concentration 1000.0 nM
[26] = system: Tyrosine-protein kinase ABL1 (Homo sapiens), P00519 [E255K]; settings: Compound concentration 1000.0 nM
[27] = target: Aurora kinase C (Homo sapiens) (UniProt Q9UQB9); settings: Compound concentration 1000.0 nM
[28] = target: Calcium/calmodulin-dependent protein kinase type 1D (Homo sapiens) (UniProt Q8IU85); settings: Compound concentration 1000.0 nM
[29] = target: Tyrosine-protein kinase CSK (Homo sapiens) (UniProt P41240); settings: Compound concentration 1000.0 nM
Chain of Tyrosine-protein kinase CSK (Homo sapiens) (P41240 2-450 limits assumed): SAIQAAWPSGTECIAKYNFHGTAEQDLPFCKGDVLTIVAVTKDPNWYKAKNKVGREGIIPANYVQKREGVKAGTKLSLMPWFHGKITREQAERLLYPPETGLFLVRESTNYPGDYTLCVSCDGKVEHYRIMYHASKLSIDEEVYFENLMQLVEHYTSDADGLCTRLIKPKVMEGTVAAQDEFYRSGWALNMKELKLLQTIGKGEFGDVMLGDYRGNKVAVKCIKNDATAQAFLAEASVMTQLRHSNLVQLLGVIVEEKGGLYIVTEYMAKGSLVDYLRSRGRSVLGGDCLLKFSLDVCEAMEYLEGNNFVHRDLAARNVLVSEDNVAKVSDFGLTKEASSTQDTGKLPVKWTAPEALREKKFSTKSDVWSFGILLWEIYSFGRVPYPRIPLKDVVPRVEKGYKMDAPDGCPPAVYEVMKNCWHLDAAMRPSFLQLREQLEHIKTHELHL

[30] = system: eIF-2-alpha kinase GCN2 (Homo sapiens), Q9P2K8 [S808G]; settings: Compound concentration 1000.0 nM
[31] = target: Serine/threonine-protein kinase Nek3 (Homo sapiens) (UniProt P51956); settings: Compound concentration 1000.0 nM
Chain of Serine/threonine-protein kinase Nek3 (Homo sapiens) (P51956 whole entry): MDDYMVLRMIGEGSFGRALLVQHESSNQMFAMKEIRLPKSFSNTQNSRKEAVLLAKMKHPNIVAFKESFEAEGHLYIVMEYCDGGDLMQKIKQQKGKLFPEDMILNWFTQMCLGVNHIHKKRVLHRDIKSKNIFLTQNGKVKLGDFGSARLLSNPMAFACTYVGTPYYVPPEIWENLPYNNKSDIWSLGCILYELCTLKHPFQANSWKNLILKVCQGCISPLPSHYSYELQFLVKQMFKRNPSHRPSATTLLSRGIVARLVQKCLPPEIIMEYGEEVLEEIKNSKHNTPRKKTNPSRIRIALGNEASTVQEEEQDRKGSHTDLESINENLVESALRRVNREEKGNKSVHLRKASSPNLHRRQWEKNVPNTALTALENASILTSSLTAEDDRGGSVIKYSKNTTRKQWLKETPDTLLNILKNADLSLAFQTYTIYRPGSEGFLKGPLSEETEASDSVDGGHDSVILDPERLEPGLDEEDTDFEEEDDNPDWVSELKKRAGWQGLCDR

[32] = target: Serine/threonine-protein kinase Chk2 (Homo sapiens) (UniProt O96017); settings: Compound concentration 1000.0 nM
Chain of Serine/threonine-protein kinase Chk2 (Homo sapiens) (O96017 whole entry): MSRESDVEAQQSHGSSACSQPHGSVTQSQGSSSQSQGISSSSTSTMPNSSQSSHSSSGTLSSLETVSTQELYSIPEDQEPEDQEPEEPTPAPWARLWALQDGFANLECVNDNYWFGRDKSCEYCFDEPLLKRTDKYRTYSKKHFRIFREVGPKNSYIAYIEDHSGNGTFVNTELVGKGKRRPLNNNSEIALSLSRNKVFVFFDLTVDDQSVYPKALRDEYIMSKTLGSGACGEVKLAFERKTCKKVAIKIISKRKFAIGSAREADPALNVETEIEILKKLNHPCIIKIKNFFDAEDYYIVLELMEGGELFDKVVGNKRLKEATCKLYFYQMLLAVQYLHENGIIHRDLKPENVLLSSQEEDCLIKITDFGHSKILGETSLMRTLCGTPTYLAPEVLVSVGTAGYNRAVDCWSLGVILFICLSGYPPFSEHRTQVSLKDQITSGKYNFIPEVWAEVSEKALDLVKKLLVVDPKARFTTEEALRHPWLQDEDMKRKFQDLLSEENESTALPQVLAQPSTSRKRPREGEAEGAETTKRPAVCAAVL

[33] = target: Rho-associated protein kinase 2 (Homo sapiens) (UniProt O75116); settings: Compound concentration 1000.0 nM

Chain of Serine/threonine-protein kinase WNK2 (Homo sapiens) (Q9Y3S1 whole entry): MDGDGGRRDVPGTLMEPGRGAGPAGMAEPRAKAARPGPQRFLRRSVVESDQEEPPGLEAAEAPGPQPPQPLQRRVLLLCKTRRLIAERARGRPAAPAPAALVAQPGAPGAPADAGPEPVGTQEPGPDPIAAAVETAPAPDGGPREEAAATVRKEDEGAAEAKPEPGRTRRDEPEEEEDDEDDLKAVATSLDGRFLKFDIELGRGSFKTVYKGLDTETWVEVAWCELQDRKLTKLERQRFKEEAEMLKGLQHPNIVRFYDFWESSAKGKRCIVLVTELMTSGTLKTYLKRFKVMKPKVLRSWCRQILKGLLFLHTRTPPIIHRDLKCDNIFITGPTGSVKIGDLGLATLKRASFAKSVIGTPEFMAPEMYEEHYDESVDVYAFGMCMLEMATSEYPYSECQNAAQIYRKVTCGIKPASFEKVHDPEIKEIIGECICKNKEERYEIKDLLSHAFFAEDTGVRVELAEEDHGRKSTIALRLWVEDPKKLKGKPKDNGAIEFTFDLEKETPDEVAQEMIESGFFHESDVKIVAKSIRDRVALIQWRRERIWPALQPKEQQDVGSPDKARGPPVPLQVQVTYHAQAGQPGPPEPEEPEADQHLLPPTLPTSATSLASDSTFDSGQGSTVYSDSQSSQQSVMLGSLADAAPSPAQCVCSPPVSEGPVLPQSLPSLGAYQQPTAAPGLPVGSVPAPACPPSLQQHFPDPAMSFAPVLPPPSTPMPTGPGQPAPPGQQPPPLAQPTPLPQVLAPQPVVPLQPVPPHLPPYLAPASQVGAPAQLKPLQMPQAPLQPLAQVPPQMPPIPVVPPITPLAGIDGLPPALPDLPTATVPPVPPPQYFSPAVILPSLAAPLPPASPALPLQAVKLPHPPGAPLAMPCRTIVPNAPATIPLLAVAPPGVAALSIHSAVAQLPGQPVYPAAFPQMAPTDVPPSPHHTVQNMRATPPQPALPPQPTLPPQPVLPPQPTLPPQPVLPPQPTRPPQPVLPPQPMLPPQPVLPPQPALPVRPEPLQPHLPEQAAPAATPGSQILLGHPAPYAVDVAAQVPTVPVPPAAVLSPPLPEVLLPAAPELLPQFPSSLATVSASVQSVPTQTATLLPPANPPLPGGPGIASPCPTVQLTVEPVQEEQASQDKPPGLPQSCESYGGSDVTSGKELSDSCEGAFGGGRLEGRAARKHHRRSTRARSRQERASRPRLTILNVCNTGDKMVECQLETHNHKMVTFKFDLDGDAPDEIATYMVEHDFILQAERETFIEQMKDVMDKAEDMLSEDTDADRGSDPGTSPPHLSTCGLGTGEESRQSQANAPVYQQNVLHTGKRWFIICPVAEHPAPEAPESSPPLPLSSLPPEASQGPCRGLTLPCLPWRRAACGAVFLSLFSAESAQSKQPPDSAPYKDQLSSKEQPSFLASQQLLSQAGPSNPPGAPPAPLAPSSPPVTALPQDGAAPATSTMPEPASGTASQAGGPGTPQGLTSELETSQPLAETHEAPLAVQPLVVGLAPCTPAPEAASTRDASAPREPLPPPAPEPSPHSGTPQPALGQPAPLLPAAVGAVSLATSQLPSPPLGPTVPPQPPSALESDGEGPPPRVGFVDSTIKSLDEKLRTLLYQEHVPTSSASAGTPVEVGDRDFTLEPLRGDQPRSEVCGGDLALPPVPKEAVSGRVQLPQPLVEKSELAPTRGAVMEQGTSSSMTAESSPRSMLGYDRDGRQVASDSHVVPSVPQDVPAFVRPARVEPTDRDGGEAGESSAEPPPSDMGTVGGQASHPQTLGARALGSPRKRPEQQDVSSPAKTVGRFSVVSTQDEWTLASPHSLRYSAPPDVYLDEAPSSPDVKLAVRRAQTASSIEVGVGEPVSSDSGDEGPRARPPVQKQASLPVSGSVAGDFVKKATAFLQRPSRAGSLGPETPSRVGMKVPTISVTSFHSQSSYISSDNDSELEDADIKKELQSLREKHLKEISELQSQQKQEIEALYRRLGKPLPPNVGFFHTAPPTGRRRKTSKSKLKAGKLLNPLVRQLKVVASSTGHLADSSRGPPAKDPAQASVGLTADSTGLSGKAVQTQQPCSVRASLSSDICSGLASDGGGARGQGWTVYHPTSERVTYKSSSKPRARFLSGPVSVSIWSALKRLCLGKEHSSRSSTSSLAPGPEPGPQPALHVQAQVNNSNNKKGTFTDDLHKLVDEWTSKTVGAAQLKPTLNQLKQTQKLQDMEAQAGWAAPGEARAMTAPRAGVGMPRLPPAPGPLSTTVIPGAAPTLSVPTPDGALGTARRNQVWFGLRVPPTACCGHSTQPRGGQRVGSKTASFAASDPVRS

Compound | residual activity [1] [%] | residual activity [2] [%] | residual activity [3] [%] | residual activity [4] [%] | inhibition [5] [%] | residual activity [6] [%] | inhibition [7] [%] | residual activity [8] [%] | residual activity [9] [%] | residual activity [10] [%] | inhibition [11] [%] | inhibition [12] [%] | residual activity [13] [%] | residual activity [14] [%] | residual activity [15] [%] | residual activity [16] [%] | residual activity [17] [%] | residual activity [18] [%] | residual activity [19] [%] | residual activity [20] [%] | also measured
O=C(NCc1ncc(C(F)(F)F)cc1Cl)c1ccc2c(c1)C1(CCS(=O)(=O)CC1)[C@@H](C1CC1)N2S(=O)(=O)c1ccc(F)cc1 [BAY-786] | 0 | 100 | 100 | 90 | -6.68 | 94 | 3.76 | 89 | 72 | 100 | -1.68 | -1.68 | 93 | 87 | 100 | 88 | 86 | 100 | 99 | 78 | residual activity [21]: 97%; residual activity [22]: 100%; residual activity [23]: 89%; residual activity [24]: 100%; residual activity [25]: 94%; residual activity [26]: 100%; residual activity [27]: 80%; residual activity [28]: 99%; residual activity [29]: 96%; residual activity [30]: 100%; residual activity [31]: 100%; residual activity [32]: 97%; residual activity [33]: 93%
O=C(NCc1ncc(C(F)(F)F)cc1Cl)c1ccc2c(c1)C1(CCS(=O)(=O)CC1)[C@H](C1CC1)N2S(=O)(=O)c1ccc(F)cc1 [BAY-784] | 97 | 100 | 100 | 94 | -9.53 | 91 | 1.03 | 0 | 100 | 100 | 13.5 | 1.44 | 100 | 100 | 82 | 88 | 87 | 100 | 100 | 76 | residual activity [21]: 99%; residual activity [22]: 100%; residual activity [23]: 100%; residual activity [24]: 100%; residual activity [25]: 100%; residual activity [26]: 80%; residual activity [27]: 82%; residual activity [28]: 85%; residual activity [29]: 97%; residual activity [30]: 88%; residual activity [31]: 100%; residual activity [32]: 100%; residual activity [33]: 95%

— ChEMBL document CHEMBL4507266, “Data for DCP probe BAY-784” (2021)
